One may read the IC50 as the point on the concentration scale where inhibition reaches its midpoint. Usually bioavailability stands for the share of a dose that reaches the circulation, judged against a reference dose that is usually intravenous. As a reminder, the inhibition is the relative decrease from the control value, in per cent.

Bounds are passed on as bounds.

These results are taken from patent publication US10125121B2, “FYN kinase inhibitors” (ROTTAPHARM BIOTECH S.R.L., priority 2015, dated 2018).

Series [1] addresses active FYN (human recombinant, 62.7 kDa) (Homo sapiens, UniProt P06241). Put plainly: In vitro kinase assay (Z′-LYTE FRET). The note with it: read-out: IC50(nM) FYN INHIBITION
The class given is biochemical.

In series [2] the test system is NF-kB activation in JB6 CI 41-5a (P+) cells. Put plainly: Gene reporter (GR) assay, NF-kB luciferase after TNFα stimulation. The class given is cell-based, murine. As to conditions: Mus musculus; 1 h pre-treatment, 2 ng/ml TNFα for 4 h; read-out: IC50(nM) GR Inhibition. The source says:
To determine if the compounds of the invention were active also in a cellular model, a gene reporter assay was established in a cell line (JB6 CI 41-5a (P+)) know to activate Fyn kinase via an inflammatory stimuli (TNFα). GR assay measures the activation of the nuclear transcription factor NF-kB, situated down-stream the Fyn activation pathway. Products active in this analysis has to penetrate in the cell and inhibit the activation pathway of NF-kB.
The murine epithelial cell line JB6 CI 41-5a (P+) (ATCC® Cat. # CRL-2010) was stably transfected with the pGL4.32[luc2P/NFkB-RE/Hygro] vector (Promega). Clonal selection was achieved by limiting dilution in MEM (+Earle's BSS+1.5 g/l sodium bicarbonate+0.1 mM NEAA)+GlutaMAX™-I, +1 mM sodium pyruvate, +5% FBS+80 μg/ml Hygromycin B. The clones were tested for their response to TNFα stimulus. The obtained transfected cells (JB6(P+) NFkB-RE-luc2P T3-C10) contained a firefly luciferase gene (luc2P) under the control of minimal TATA promoter with multiple Nuclear Factor-kB response elements (NFkB-REs). These NFkB-REs are DNA binding sequences for the NF-kB transcription factor.
JB6(P+) NFkB-RE-luc2P T3-C10 cells were used for the analysis of NF-kB activity modulation, after TNFα stimulation, by Fyn-inhibitors (Hwang et al.; Biochem. Pharmacol. 2009, 77 (7):1213-22).
6000 cells/well were plated in a 96× well plate. After 24 h new medium without antibiotics was given. After further 24 h the cells were pre-treated with the different compounds for 1 h and then stimulated with 2 ng/ml TNFα for 4 h. In each experiments two positive standards were always used, and each tested condition was analyzed in quadruplicate.
The luciferase analysis was performed with ONE-Glo™+ToxLuciferase Reporter and Cell Viability Assay kit (Promega). This assay combined luciferase assay chemistry with a cell viability marker to better understand reporter gene expression in the context of cell health. The assay uses a two-step process. The first part of the assay was a non-lytic fluorescence assay (CellTiter-Fluor™ Cell Viability Assay) that measured the relative number of live cells in a culture population, as it measures a conserved and constitutive protease activity within live cells. The live-cell protease activity was restricted to intact viable cells and was measured using a fluorogenic, cell-permeant peptide substrate (glycyl-phenylalanyl-aminofluorocoumarin; GF-AFC). The generated fluorescent signal, proportional to the number of living cells, was measured with EnVision microplate reader (PerkinElmer) using an excitation wavelength of 400 nm and emission wavelength of 500 nm.
The second part of the assay uses the ONE-Glo™ Luciferase Assay System to quantify firefly luciferase reporter gene expression. The ONE-Glo™ Assay contained a fluoro-luciferin substrate, more tolerant to sample components than standard luciferase assay reagents. Luminescence was measured with EnVision microplate reader (PerkinElmer).
Compounds of Formula (I) were tested for their capacity to penetrate into the cell and inhibit the activation pathway of NF-kB.

The next series can be described thus: Pharmacokinetics in rats. As to conditions: rat, in vivo, po, 1 mg/kg orally. The class given is in vivo, rat.
The next series has as its target LYN (Homo sapiens, UniProt P07948). The experiment in a line: Kinase selectivity panel by Cerep.
Another series addresses YES (Homo sapiens, UniProt P07947). The experiment in a line: Kinase selectivity panel by Cerep.
In another series the target is HCK (Homo sapiens, UniProt P08631). Put plainly: Kinase selectivity panel by Cerep.
HCK, sequence (P08631 whole entry): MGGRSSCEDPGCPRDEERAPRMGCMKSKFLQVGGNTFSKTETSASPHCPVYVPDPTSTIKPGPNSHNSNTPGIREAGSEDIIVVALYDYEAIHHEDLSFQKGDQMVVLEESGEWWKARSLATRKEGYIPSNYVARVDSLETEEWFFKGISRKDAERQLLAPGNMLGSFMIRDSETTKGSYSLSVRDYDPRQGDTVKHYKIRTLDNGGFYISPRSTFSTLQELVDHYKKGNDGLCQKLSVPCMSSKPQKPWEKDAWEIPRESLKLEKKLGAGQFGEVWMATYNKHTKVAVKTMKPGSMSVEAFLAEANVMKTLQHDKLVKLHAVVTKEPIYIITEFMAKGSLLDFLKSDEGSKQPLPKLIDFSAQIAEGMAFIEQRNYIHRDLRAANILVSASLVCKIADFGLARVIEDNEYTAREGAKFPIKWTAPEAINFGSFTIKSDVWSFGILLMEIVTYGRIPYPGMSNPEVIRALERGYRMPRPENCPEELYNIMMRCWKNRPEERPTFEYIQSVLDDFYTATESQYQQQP
For another series, the target named is CDK2 (Homo sapiens, UniProt P24941). The experiment in a line: Kinase selectivity panel by Cerep. As to conditions: read-out: inhibition of CDK2.
In series [3] the test system is remaining kinases examined (standard panel of about 100 human kinase assay). Put plainly: Kinase selectivity panel by Cerep.

YES, sequence (P07947 whole entry): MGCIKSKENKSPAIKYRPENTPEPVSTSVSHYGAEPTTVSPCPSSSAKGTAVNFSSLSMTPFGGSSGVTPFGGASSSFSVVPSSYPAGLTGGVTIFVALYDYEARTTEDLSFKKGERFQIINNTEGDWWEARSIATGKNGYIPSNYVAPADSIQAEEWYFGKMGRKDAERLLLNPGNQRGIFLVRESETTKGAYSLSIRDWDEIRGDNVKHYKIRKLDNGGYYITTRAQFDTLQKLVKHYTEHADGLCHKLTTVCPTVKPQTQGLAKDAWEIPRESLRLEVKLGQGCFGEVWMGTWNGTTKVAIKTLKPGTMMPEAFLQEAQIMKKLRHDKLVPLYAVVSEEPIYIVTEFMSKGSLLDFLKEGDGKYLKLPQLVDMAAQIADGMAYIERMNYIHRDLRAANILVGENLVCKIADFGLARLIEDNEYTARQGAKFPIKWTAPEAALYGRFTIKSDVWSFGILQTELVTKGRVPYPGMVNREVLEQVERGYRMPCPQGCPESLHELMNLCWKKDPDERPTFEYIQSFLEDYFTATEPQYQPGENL
LYN, sequence (P07948 whole entry): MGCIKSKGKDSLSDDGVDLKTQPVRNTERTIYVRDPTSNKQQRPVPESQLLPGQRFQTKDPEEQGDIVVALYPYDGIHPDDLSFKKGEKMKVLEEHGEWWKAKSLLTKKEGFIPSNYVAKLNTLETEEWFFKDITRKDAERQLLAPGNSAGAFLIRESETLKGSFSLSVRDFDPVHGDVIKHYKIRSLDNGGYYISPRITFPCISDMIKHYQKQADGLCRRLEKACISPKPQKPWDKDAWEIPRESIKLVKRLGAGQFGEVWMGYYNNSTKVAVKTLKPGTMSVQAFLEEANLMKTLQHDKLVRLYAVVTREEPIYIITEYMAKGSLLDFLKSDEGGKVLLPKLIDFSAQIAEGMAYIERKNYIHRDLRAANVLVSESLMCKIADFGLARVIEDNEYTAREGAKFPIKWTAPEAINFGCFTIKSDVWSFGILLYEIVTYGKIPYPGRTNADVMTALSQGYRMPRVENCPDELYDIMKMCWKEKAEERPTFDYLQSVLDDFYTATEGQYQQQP
active FYN (human recombinant, 62.7 kDa), sequence (P06241 whole entry): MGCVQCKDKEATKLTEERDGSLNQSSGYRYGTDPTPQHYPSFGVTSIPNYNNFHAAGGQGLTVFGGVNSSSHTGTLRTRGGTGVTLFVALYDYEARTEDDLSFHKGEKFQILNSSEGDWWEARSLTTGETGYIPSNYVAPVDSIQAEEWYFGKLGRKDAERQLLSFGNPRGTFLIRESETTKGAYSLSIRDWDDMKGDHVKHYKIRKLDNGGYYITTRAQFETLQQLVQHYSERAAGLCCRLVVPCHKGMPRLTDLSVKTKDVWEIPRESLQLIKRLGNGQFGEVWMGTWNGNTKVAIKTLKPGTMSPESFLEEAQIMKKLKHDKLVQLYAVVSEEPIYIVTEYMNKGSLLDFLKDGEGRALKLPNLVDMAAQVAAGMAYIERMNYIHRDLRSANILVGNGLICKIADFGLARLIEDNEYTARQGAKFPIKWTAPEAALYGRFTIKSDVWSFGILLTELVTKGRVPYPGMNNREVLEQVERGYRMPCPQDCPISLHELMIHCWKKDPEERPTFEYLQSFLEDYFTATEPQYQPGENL

On to `O=C(Nc1ccc(CN2CCN(c3nccc(Nc4cc(C5CC5)[nH]n4)n3)CC2)cc1)c1ccccc1C(F)(F)F` [Compound 2, N-(4-((4-(4-((5-cyclopropyl-1H-pyrazol-3-yl)amino)pyrimidin-2-yl)piperazin-1-yl)methyl)phenyl)-2-(trifluoromethyl)-benzamide], for which the IC50 was determined as 9 nM in series [1]; 190 nM in series [2]; 1400 nM against LYN; 270 nM against YES; 3200 nM against HCK. In the series “Pharmacokinetics in rats”, the bioavailability was 51%. Further, the AUC(0-t) in “Pharmacokinetics in rats” (read-out: AUC (0-24 h)) amounted to 877 ng·h/mL. Moreover, on CDK2, the inhibition at 0.1 µM is over 50%. Besides, in series [3], the “effect on more than 70% of the remaining kinases examined” value is given as “practically ineffective”.
